In US20130345215A1, “PYRAZOLOPYRIMIDONE AND PYRAZOLOPYRIDONE INHIBITORS OF TANKYRASE” (Genentech, Inc., priority 2012, published 2013):
pIC50: −log10 of the molar value.

Each compound was assayed on Wnt stimulated TCF transcriptional activity, HEK293-TS 112 TCF reporter cell line (assay: Tankyrase 1 Assay (Example 119): Wnt3A-stimulated TOPbrite TCF luciferase reporter). Settings: Compounds I-59 to I-144, procedure in Example 119 (0.5 ug/mL Wnt3A, 16 hours); read-out: TNKS1 (IC50).
Format: cell-based
Experimental: Inhibition of the Wnt stimulated TCF transcriptional activity by tankyrase inhibitors was determined utilizing a HEK293-TS 112 TCF reporter cell line. A Wnt-responsive luciferase reporter named TOPbrite was constructed by cloning the enhancer element of Super8xTOPFlash containing eight TCF/LEF binding sites into the pGL4.28 vector (Promega) upstream of the minimal promoter element, and selecting for hygromycin B resistance (50 μg/ml). Cells were seeded into 384-well plates in the presence of 0.5 ug/mL of Wnt3A at a density of 20,000 cells per well in 25 ul of F:12 DMEM media supplemented with 10% FBS and 2 mM Glutamax. Cells seeded without the addition of Wnt3A were used as background signal. Compounds of various concentrations were added to cells and incubated at 37 degrees with 5% CO2 for 16 hours. The assay was terminated with the addition of Promega Dual Glo kit per manufacturer's instructions. A ratio of TOPbrite Firefly Luciferase and SV40 Renillla Luciferase was calculated and the background from the neutral wells was subtracted yielding the final normalized measurement of TCF transcriptional activity. Compound IC50s were determined by four-parameter curve fitting using GeneData software.

Going from Cn1ncc2c(=O)[nH]c(N3CCN(c4c(F)cc(OCCOP(=O)(O)O)cc4F)CC3)nc21 [Compound I-75, 2-[3 5-difluoro-4-[4-(1-methyl-4-oxo-5H-pyrazolo[3 4-d]pyrimidin-6-yl)piperazin-1-yl]phenoxy]ethyl dihydrogen phosphate] to COCCOc1cc(F)c(N2CCN(c3nc4c(cnn4CCO)c(=O)[nH]3)CC2)c(F)c1 [Compound I-94, 6-[4-[2 6-difluoro-4-(2-methoxyethoxy)phenyl]piperazin-1-yl]-1-(2-hydroxyethyl)-5H-pyrazolo[3 4-d]pyrimidin-4-one], the pIC50 falls from 8.02 to 6.58 (1.44 log units). The first is the more potent here.

Compared with Cn1ncc2c(=O)[nH]c(N3CCN(CC4CCOCC4)CC3)nc21 [Compound I-116, 1-methyl-6-[4-(tetrahydropyran-4-ylmethyl)piperazin-1-yl]-5H-pyrazolo[3 4-d]pyrimidin-4-one], Cn1ncc2c(=O)[nH]c(N3CCN(C4CCOCC4)CC3)nc21 [Compound I-130, 1-methyl-6-(4-tetrahydropyran-4-ylpiperazin-1-yl)-5H-pyrazolo[3 4-d]pyrimidin-4-one] is 0.45 log units lower in pIC50: 6.95 for the first, 6.50 for the second. The first is the more potent here.

Cn1ncc2c(=O)[nH]c(N3CCC(n4cccn4)CC3)nc21 [Compound I-112, 1-methyl-6-(4-pyrazol-1-yl-1-piperidyl)-5H-pyrazolo[3 4-d]pyrimidin-4-one] and Cn1ncc2c(=O)[nH]c(N3CCC(c4ccccn4)CC3)nc21 [Compound I-111, 1-methyl-6-[4-(2-pyridyl)-1-piperidyl]-5H-pyrazolo[3 4-d]pyrimidin-4-one] are within 0.2 log units of each other in pIC50: 7.05 for the first, 7.08 for the second.

Cc1c[nH]nc1C1CCN(c2nc3c(cnn3C)c(=O)[nH]2)CC1 [Compound I-115, 1-methyl-6-[4-(4-methyl-1H-pyrazol-3-yl)-1-piperidyl]-5H-pyrazolo[3 4-d]pyrimidin-4-one] and Cn1cnnc1C1CCN(c2nc3c(cnn3C)c(=O)[nH]2)CC1 [Compound I-122, 1-methyl-6-[4-(4-methyl-1 2 4-triazol-3-yl)-1-piperidyl]-5H-pyrazolo[3 4-d]pyrimidin-4-one] are within 0.2 log units of each other in pIC50: 6.97 for the first, 6.79 for the second.

Compared with CCCn1ccc(C2(C)CCN(c3nc4c(cnn4C)c(=O)[nH]3)CC2)n1 [Compound I-98, 1-methyl-6-[4-methyl-4-(1-propylpyrazol-3-yl)-1-piperidyl]-5H-pyrazolo[3 4-d]pyrimidin-4-one], Cn1ncc2c(=O)[nH]c(N3CCC(C)(c4ccn(CCO)n4)CC3)nc21 [Compound I-89, 6-[4-[1-(2-hydroxyethyl)pyrazol-3-yl]-4-methyl-1-piperidyl]-1-methyl-5H-pyrazolo[3 4-d]pyrimidin-4-one] is 0.23 log units higher in pIC50: 7.43 for the first, 7.66 for the second. The second is the more potent here.

First: CC(C)n1ccc(C2(C)CCN(c3nc4c(cnn4C)c(=O)[nH]3)CC2)n1 [Compound I-119, 6-[4-(1-isopropylpyrazol-3-yl)-4-methyl-1-piperidyl]-1-methyl-5H-pyrazolo[3 4-d]pyrimidin-4-one]
Second: Cn1ncc2c(=O)[nH]c(N3CCC(C)(c4ccn(CC(C)(C)O)n4)CC3)nc21 [Compound I-127, 6-[4-[1-(2-hydroxy-2-methyl-propyl)pyrazol-3-yl)-4-methyl-1-piperidyl]-1-methyl-5H-pyrazolo[3 4-d]pyrimidin-4-one]
The pIC50 of the first is 0.26 log units higher: 6.91 for the first, 6.65 for the second. The first is the more potent here.

Going from Cn1ncc2c(=O)[nH]c(-c3ccc(S(=O)(=O)C4CCCCC4)cc3)nc21 [Compound I-125, 6-(4-cyclohexylsulfonylphenyl)-1-methyl-5H-pyrazolo[3 4-d]pyrimidin-4-one] to Cn1ncc2c(=O)[nH]c(-c3ccc(S(C)(=O)=O)cc3)nc21 [Compound I-102, 1-methyl-6-(4-methylsulfonylphenyl)-5H-pyrazolo[3 4-d]pyrimidin-4-one], the pIC50 rises from 6.75 to 7.32 (0.57 log units).

First: Cn1ncc2c(=O)[nH]c(N3CCC(c4[nH]ncc4S(C)(=O)=O)CC3)nc21 [Compound I-81, 1-methyl-6-[4-(4-methylsulfonyl-1H-pyrazol-5-yl)-1-piperidyl]-5H-pyrazolo[3 4-d]pyrimidin-4-one]
Second: Cn1ncc2c(=O)[nH]c(N3CCC(c4n[nH]c5ncccc45)CC3)nc21 [Compound I-97, 1-methyl-6-[4-(1H-pyrazolo[3 4-b]pyridin-3-yl)-1-piperidyl]-5H-pyrazolo[3 4-d]pyrimidin-4-one]
The pIC50 of the first is 0.34 log units higher: 7.84 for the first, 7.50 for the second.

Compared with Cn1ncc2c(=O)[nH]c(N3CCN(c4c(F)cc(OCCN5CCCCC5)cc4F)CC3)nc21 [Compound I-62, 6-{4-[2,6-Difluoro-4-(2-piperidin-1-yl-ethoxy)-phenyl]-piperazin-1-yl}-1-methyl-1,5-dihydro-pyrazolo[3,4-d]pyrimidin-4-one], Cn1ncc2c(=O)[nH]c(N3CCN(c4c(F)cc(OCC5C[S+]([O-])C5)cc4F)CC3)nc21 (centres unmarked) [Compound I-72, 6-[4-[2 6-difluoro-4-[(1-oxothietan-3-yl)methoxy]phenyl]piperazin-1-yl]-1-methyl-5H-pyrazolo[3 4-d]pyrimidin-4-one] is 0.23 log units lower in pIC50: 8.30 for the first, 8.07 for the second. The first is the more potent here.

First: Cn1ncc2c(=O)[nH]c(N3CCC(S(=O)(=O)CC4CCCCC4)CC3)nc21 [Compound I-135, 6-[4-(cyclohexylmethylsulfonyl)-1-piperidyl]-1-methyl-5H-pyrazolo[3 4-d]pyrimidin-4-one]
Second: Cn1ncc2c(=O)[nH]c(N3CCN([C@H]4CC[C@H](O)CC4)CC3)nc21 [Compound I-120, 6-[4-(4-hydroxycyclohexyl)piperazin-1-yl]-1-methyl-5H-pyrazolo[3 4-d]pyrimidin-4-one]
The pIC50 of the first is 0.43 log units lower: 6.39 for the first, 6.82 for the second. The second is the more potent here.

First: Cn1ncc2c(=O)[nH]c(N3CCN(c4c(F)cc(CO)cc4F)CC3)nc21 [Compound I-79, 6-[4-[2 6-difluoro-4-(hydroxymethyl)phenyl]piperazin-1-yl]-1-methyl-5H-pyrazolo[3 4-d]pyrimidin-4-one]
Second: CC(O)c1cc(F)c(N2CCN(c3nc4c(cnn4C)c(=O)[nH]3)CC2)c(F)c1 (centres unmarked) [Compound I-69, 6-[4-[2 6-difluoro-4-(1-hydroxyethyl)phenyl]piperazin-1-yl]-1-methyl-5H-pyrazolo[3 4-d]pyrimidin-4-one]
The pIC50 of the first is 0.23 log units lower: 7.88 for the first, 8.11 for the second.

Going from Cn1cc(N2CCN(c3nc4c(cnn4C)c(=O)[nH]3)CC2)cn1 [Compound I-105, 1-methyl-6-[4-(1-methylpyrazol-4-yl)piperazin-1-yl]-5H-pyrazolo[3 4-d]pyrimidin-4-one] to Cn1nccc1CN1CCN(c2nc3c(cnn3C)c(=O)[nH]2)CC1 [Compound I-132, 1-methyl-6-[4-((2-methylpyrazol-3-yl)methyl]piperazin-1-yl]-5H-pyrazolo[3 4-d]pyrimidin-4-one], the pIC50 falls from 7.19 to 6.48 (0.71 log units). The first is the more potent here.

Going from Cn1ncc2c(=O)[nH]c(N3CCC(Cc4cccnc4)C3)nc21 (centres unmarked) [Compound I-137, 1-methyl-6-[3-(3-pyridylmethyl)pyrrolidin-1-yl]-5H-pyrazolo[3 4-d]pyrimidin-4-one] to Cn1ncc2c(=O)[nH]c(N3CCC(c4ccccc4)CC3)nc21 [Compound I-101, 1-methyl-6-(4-phenyl-1-piperidyl)-5H-pyrazolo[3 4-d]pyrimidin-4-one], the pIC50 rises from 6.31 to 7.34 (1.03 log units).

Going from COCCOc1cc(F)c(N2CCN(c3nc4c(cnn4CC(C)O)c(=O)[nH]3)CC2)c(F)c1 (centres unmarked) [Compound I-126, 6-[4-[2 6-difluoro-4-(2-methoxyethoxy)phenyl]piperazin-1-yl]-1-(2-hydroxypropyl)-5H-pyrazolo[3 4-d]pyrimidin-4-one] to Cn1ncc2c(=O)[nH]c(N3CCN(c4c(F)cc(OC(CO)CCl)cc4F)CC3)nc21 (centres unmarked) [Compound I-64, 6-[4-[4-[1-(chloromethyl)-2-hydroxy-ethoxy]-2 6-difluoro-phenyl]piperazin-1-yl]-1-methyl-5H-pyrazolo[3 4-d]pyrimidin-4-one], the pIC50 rises from 6.66 to 8.19 (1.53 log units). The second is the more potent here.

Going from Cc1cc(CN2CCN(c3nc4c(cnn4C)c(=O)[nH]3)CC2)no1 [Compound I-140, 1-methyl-6-[4-[(5-methylisoxazol-3-yl)methyl]piperazin-1-yl]-5H-pyrazolo[3 4-d]pyrimidin-4-one] to Cn1ncc2c(=O)[nH]c(N3CCN(c4c(F)cc(OC5COC5)cc4F)CC3)nc21 [Compound I-85, 6-[4-[2 6-difluoro-4-(oxetan-3-yloxy)phenyl]piperazin-1-yl]-1-methyl-5H-pyrazolo[3 4-d]pyrimidin-4-one], the pIC50 rises from 6.25 to 7.77 (1.52 log units).

Going from COCCOc1cc(F)c(C2(O)CCN(c3nc4c(cnn4C)c(=O)[nH]3)CC2)c(F)c1 [Compound I-83, 6-[4-[2 6-difluoro-4-(2-methoxyethoxy)phenyl]-4-hydroxy-1-piperidyl]-1-methyl-5H-pyrazolo[3 4-d]pyrimidin-4-one] to O=c1[nH]c(N2CCN(c3c(F)cc(F)cc3F)CC2)nc2[nH]ncc12 [Compound I-104, 6-[4-(2 4 6-trifluorophenyl)piperazin-1-yl]-1 5-dihydropyrazolo[3 4-d]pyrimidin-4-one], the pIC50 falls from 7.82 to 7.26 (0.56 log units).

First: Cn1ncc2c(=O)[nH]c(N3CCN(C4CC5CCC4C5)CC3)nc21 (centres unmarked) [Compound I-103, 1-methyl-6-(4-norbornan-2-ylpiperazin-1-yl)-5H-pyrazolo[3 4-d]pyrimidin-4-one]
Second: Cn1ncc2c(=O)[nH]c(-c3ccc(S(C)(=O)=O)cn3)nc21 [Compound I-139, 1-methyl-6-(5-methylsulfonyl-2-pyridyl)-5H-pyrazolo[3 4-d]pyrimidin-4-one]
The pIC50 of the first is 1.04 log units higher: 7.30 for the first, 6.26 for the second.

Compound CCS(=O)(=O)c1ccc(-c2nc3c(cnn3C)c(=O)[nH]2)cc1 [Compound I-107, 6-(4-ethylsulfonylphenyl)-1-methyl-5H-pyrazolo[3 4-d]pyrimidin-4-one] has a pIC50 of 7.17.
